Results as given in patent US20050025805A1, “Osmium compounds for reduction of adverse inflammation” (priority 2003, published 2005).
Read-outs that look alike come from different tables or passages of the source.

Tests used:
[1] = system: Phorbol Myristate Stimulated Murine Peritoneal Macrophages; conditions: cited from earlier work
[2] = Neta et al. J. Phys. Chem. 1980; cited from earlier work
[3] = Pulse radiolysis: decay of carbonate radical CO3.-, absorbance at 600 nm; assay type: biochemical; conditions: 0.6 M carbonate
Experimental: Methods. Pulse radiolysis experiments were carried out using a 5-MeV Varian 7715 linear accelerator (0.05-1.5 μs electron pulses, 200 mA current). All measurements were performed at room temperature in a 2-cm spectrosil cell, with three light passes (optical path length 6.1 cm). The formation and decay kinetics of the CO3− radical were tracked by measuring its absorption at 600 nm using ε600=1860 M^−1cm^−1.
Carbonate radical was generated by irradiating N2O-saturated (˜25 mM) aqueous solutions containing 0.1-0.6 M sodium carbonate (pKa(HCO3^−)=10, I=0.5 M) at pH 10.0 by reaction sequence 18-20 (the species radiation yields are in parentheses): […]

[4] = Pulse radiolysis: catalysis of the decay (dismutation) of O2.-, absorbance at 260 nm; assay type: biochemical; conditions: for kcat (in words): oxygenated solution; for kobs at the plateau: 10 μM O2.-, pH 7.25; for kcat at the plateau after repetitive pulsing: 20 mM formate, 2.4 mM phosphate pH 7.25
Experimental: Pulse radiolysis experiments were carried out with a Varian (Palo Alto, Calif.) 7715 linear accelerator with 5 MeV electron pulses of 1.5 μs duration. The light source of the analyzing beam was a 200 W xenon lamp. The absorption spectra were measured were at room temperature in a 2 cm Spectrosil® cell, the beam passing the cell three times, for an optical path length of 6.1 cm. The dose was 6-19.4 Gy per pulse, as determined from the absorption of the superoxide ion, using G(O2.^−)=6.1 and ε260=1940 M^−1cm^−1, in pH 7.4 O2 saturated 2.4 mM phosphate buffer, containing 20 mM formate.
OsO4 (or its product) catalyzes the decay of the superoxide ion radical. The superoxide ion radical (pKa=4.8) was formed by pulse-irradiation of oxygenated pH 7.2-7.4 buffer solutions. The solutions contained either 0.02 M formate and 2.4 mM phosphate, or 0.2 M 2-PrOH and 12 mM phosphate. In some experiment 5-10 μM diethylenetriaminepentaacetic acid (DTPA) or catalase (75 u/ml) were added. In the presence of either formate or 2-PrOH. All of the primary radicals formed by the radiation (Equation 3) are converted into O2.^− via Reactions 4-7 when formate is added, and by Reactions 4, 8-10, when 2-PrOH is added. In Equation 3 the values in parentheses are the radiation-chemical yields of the species, defined as the number of species produced per 100 eV of absorbed energy γ.

## CC(=O)OC[C@H]1O[C@@H]([S-])[C@H](OC(C)=O)[C@@H](OC(C)=O)[C@@H]1OC(C)=O.CCP(CC)CC.[Au+] [2,3,4,6-tetra-O-acetyl-1-thio-β-D-glucopyranosato-S (triethylphosphine)]
[1]; 10 μM concentration
  inhibition of the release of O2.- (in words): completely inhibited

## Cc1cccc[n+]1[O-] [2-picoline N-oxide]
[2]
  k, reaction with .OH radicals: 3e+09 M⁻¹ s⁻¹

## Cc1ccc[n+]([O-])c1 [3-picoline N-oxide]
[2]
  k, reaction with .OH radicals: 3e+09 M⁻¹ s⁻¹

## Cc1cc[n+]([O-])cc1 [4-picoline N-oxide]
[3]; 2 mM, 3 μM CO3.-
  shortening of the half-life of CO3.-: about 50%
[3]; pH 10.0
  rate constant of the reaction with CO3.-: about 3×10^4 M^−1s^−1
[2]
  k, reaction with .OH radicals: 3e+09 M⁻¹ s⁻¹

## CN(C)CCCN1CCC2(C[CH2][Ge]([CH3])([CH3])[CH2]C2)C1 [(N,N-dimethylaminopropyl)-2-aza-8,8-dimethyl-8-germanospiro-(4,5)-decane]
[1]; 10 μM concentration
  inhibition of the release of O2.- (in words): completely inhibited

## [Os+2].c1ccc(-c2ccccn2)nc1.c1ccc(-c2ccccn2)nc1.c1ccc(-c2ccccn2)nc1 [Os(bpy)3^2+]
[4]
  kcat (in words): too low to be measured

## Cc1ccnc(-c2cc(C)ccn2)c1.Cc1ccnc(-c2cc(C)ccn2)c1.Cc1ccnc(-c2cc(C)ccn2)c1.[Os+2] [Os(dimebpy)^2+]
[4]
  kcat (in words): too low to be measured

## [Cl][Os]([Cl])[Cl] [OsCl3, OsCl3.6H2O]
[4]; 1.65 μM OsCl3, after 40 pulses
  kobs at the plateau: 1700 s⁻¹
[4]
  kcat at the plateau after repetitive pulsing: 1.1e+09 M⁻¹ s⁻¹
[4]; 1.65 or 3.3 μM OsCl3, first pulse
  effect on rate of decay of O2.- in the first pulse: only a minor increase
[4]; 3.3 OsCl3, after 40 pulses
  kobs at the plateau: 3400 s⁻¹

## [Cl][Os][Cl].c1cnc2c(c1)ccc1cccnc12.c1cnc2c(c1)ccc1cccnc12 [dichlorobis(phenathroline) osmium(II)]
[1]; 10 μM concentration
  % inhibition of O2.- release: 24±4%

## [O-][n+]1ccccc1 [pyridine N-oxide]
[2]
  k, reaction with .OH radicals: 3e+09 M⁻¹ s⁻¹

## K2OsCl6.2H2O Cl6 [OsCl6^2−]
[4]
  kcat at the plateau after repetitive pulsing: 4e+08 M⁻¹ s⁻¹

## bis(bipyridyl) dichloroosmium(II)
[1]; 10 μM concentration
  % inhibition of O2.- release: 2±2%

## octamminodinitrato-(μ-nitrido)-diosmium trinitrate
[1]; 100 μM concentration
  % inhibition of O2.- release: 29±6%
